# Measured values from ChEMBL document CHEMBL4145553, “Design, synthesis, and biological evaluation of novel amide and hydrazide based thioether analogs targeting Histone deacteylase (HDAC) enzymes” (Eur J Med Chem, 2018).
# pIC50: −log10 of the molar value. Calls of active or inactive are those of the source. The calls are words filed in the database; no cut-off is given here.
# Columns and labels:
# [1] = system: RXF 393; assay: Growth inhibition of human RXF393 cells assessed as cell growth at 10^-7 M incubated for 48 hrs by sulforhodamine B assay relative to control; format: functional; conditions: RXF 393, 48 h, read-out: Activity
# [2] = system: OVCAR-4; assay: Growth inhibition of human OVCAR4 cells assessed as cell growth at 10^-4 M incubated for 48 hrs by sulforhodamine B assay relative to control; format: functional; conditions: OVCAR-4, 48 h, read-out: Activity
# [3] = system: SN12C; assay: Growth inhibition of human SN12C cells assessed as cell growth at 10^-8 M incubated for 48 hrs by sulforhodamine B assay relative to control; format: functional; conditions: read-out: Activity
# [4] = system: HOP-62; assay: Growth inhibition of human HOP62 cells assessed as cell growth at 10^-4 M incubated for 48 hrs by sulforhodamine B assay relative to control; format: functional; conditions: HOP-62, 48 h, read-out: Activity
# [5] = system: RXF 393; assay: Growth inhibition of human RXF393 cells incubated for 48 hrs by sulforhodamine B assay; format: functional; conditions: RXF 393, 48 h
# [6] = system: MDA-MB-231; assay: Growth inhibition of human MDA-MB-231 cells assessed as cell growth at 10^-6 M incubated for 48 hrs by sulforhodamine B assay relative to control; format: functional; conditions: MDA-MB-231, 48 h, read-out: Activity
# [7] = system: HL-60; assay: Induction of apoptosis in human HL60 cells assessed as increase in gammaH2ax expression by qRT-PCR method; format: functional, cell-based
# [8] = system: MDA-MB-435; assay: Induction of apoptosis in human MDA-MB-435 cells assessed as live cells by propidium iodide/Annexin V staining based flow cytometry (reference value: 97.4%); format: functional
# [9] = system: MDA-MB-435; assay: Cell cycle arrest in human MDA-MB-435 cells assessed as accumulation at G2-phase by propidium iodide staining based flow cytometry (reference value: 3.68%); format: functional
# [10] = system: IGROV-1; assay: Growth inhibition of human IGROV1 cells incubated for 48 hrs by sulforhodamine B assay; format: functional; conditions: IGROV-1, 48 h
# [11] = system: SW-620; assay: Growth inhibition of human SW620 cells assessed as cell growth at 10^-8 M incubated for 48 hrs by sulforhodamine B assay relative to control; format: functional; conditions: SW-620, 48 h, read-out: Activity
# [12] = system: SK-MEL-5; assay: Growth inhibition of human SK-MEL-5 cells assessed as cell growth at 10^-5 M incubated for 48 hrs by sulforhodamine B assay relative to control; format: functional; conditions: SK-MEL-5, 48 h, read-out: Activity
# [13] = system: RPMI-8226; assay: Growth inhibition of human RPMI8226 cells incubated for 48 hrs by sulforhodamine B assay; format: functional; conditions: RPMI-8226, 48 h
# [14] = system: SW-620; assay: Growth inhibition of human SW620 cells incubated for 48 hrs by sulforhodamine B assay; format: functional; conditions: SW-620, 48 h
# [15] = target: Histone deacetylase 3 (Homo sapiens, UniProt O15379); assay: Inhibition of HDAC3 (unknown origin) by ELISA
# Chain of Histone deacetylase 3 (O15379 whole entry): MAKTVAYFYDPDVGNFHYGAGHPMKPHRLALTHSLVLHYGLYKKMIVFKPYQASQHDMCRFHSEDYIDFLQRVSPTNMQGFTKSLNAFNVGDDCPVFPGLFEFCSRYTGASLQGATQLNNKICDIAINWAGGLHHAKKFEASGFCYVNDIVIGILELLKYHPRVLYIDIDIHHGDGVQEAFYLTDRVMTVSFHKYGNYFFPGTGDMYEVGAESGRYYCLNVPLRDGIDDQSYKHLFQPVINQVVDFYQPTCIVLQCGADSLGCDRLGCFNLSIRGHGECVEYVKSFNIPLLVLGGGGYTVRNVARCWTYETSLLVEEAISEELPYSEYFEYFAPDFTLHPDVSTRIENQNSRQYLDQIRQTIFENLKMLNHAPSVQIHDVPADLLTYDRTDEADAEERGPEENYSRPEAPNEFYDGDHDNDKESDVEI
# [16] = system: NCI-H23; assay: Growth inhibition of human NCI-H23 cells assessed as cell growth at 10^-4 M incubated for 48 hrs by sulforhodamine B assay relative to control; format: functional; conditions: NCI-H23, 48 h, read-out: Activity
# [17] = system: A498; assay: Growth inhibition of human A498 cells assessed as cell growth at 10^-6 M incubated for 48 hrs by sulforhodamine B assay relative to control; format: functional; conditions: A498, 48 h, read-out: Activity
# [18] = system: UO-31; assay: Growth inhibition of human UO31 cells assessed as cell growth at 10^-5 M incubated for 48 hrs by sulforhodamine B assay relative to control; format: functional; conditions: UO-31, 48 h, read-out: Activity
# [19] = system: DU-145; assay: Growth inhibition of human DU145 cells assessed as cell growth at 10^-5 M incubated for 48 hrs by sulforhodamine B assay relative to control; format: functional; conditions: DU-145, 48 h, read-out: Activity
# [20] = system: HL-60; assay: Cell cycle arrest in human HL60 cells assessed as accumulation at G1-phase by propidium iodide staining based flow cytometry (reference value: 67.27%); format: functional
# [21] = system: SK-OV-3; assay: Growth inhibition of human SKOV3 cells assessed as cell growth at 10^-6 M incubated for 48 hrs by sulforhodamine B assay relative to control; format: functional; conditions: SK-OV-3, 48 h, read-out: Activity
# [22] = system: SK-MEL-28; assay: Growth inhibition of human SK-MEL-28 cells incubated for 48 hrs by sulforhodamine B assay; format: functional; conditions: SK-MEL-28, 48 h
# [23] = system: NCI-H460; assay: Growth inhibition of human NCI-H460 cells assessed as cell growth at 10^-8 M incubated for 48 hrs by sulforhodamine B assay relative to control; format: functional; conditions: NCI-H460, 48 h, read-out: Activity
# [24] = system: NCI-H522; assay: Growth inhibition of human NCI-H522 cells assessed as cell growth at 10^-8 M incubated for 48 hrs by sulforhodamine B assay relative to control; format: functional; conditions: NCI-H522, 48 h, read-out: Activity
# [25] = system: OVCAR-3; assay: Growth inhibition of human OVCAR3 cells assessed as cell growth at 10^-8 M incubated for 48 hrs by sulforhodamine B assay relative to control; format: functional; conditions: OVCAR-3, 48 h, read-out: Activity
# [26] = system: NCI-H226; assay: Growth inhibition of human NCI-H226 cells assessed as cell growth at 10^-5 M incubated for 48 hrs by sulforhodamine B assay relative to control; format: functional; conditions: NCI-H226, 48 h, read-out: Activity
# [27] = system: SK-OV-3; assay: Growth inhibition of human SKOV3 cells assessed as cell growth at 10^-8 M incubated for 48 hrs by sulforhodamine B assay relative to control; format: functional; conditions: SK-OV-3, 48 h, read-out: Activity
# [28] = system: TK-10; assay: Growth inhibition of human TK10 cells assessed as cell growth at 10^-6 M incubated for 48 hrs by sulforhodamine B assay relative to control; format: functional; conditions: TK-10, 48 h, read-out: Activity
# [29] = system: HCT-15; assay: Growth inhibition of human HCT15 cells assessed as cell growth at 10^-7 M incubated for 48 hrs by sulforhodamine B assay relative to control; format: functional; conditions: HCT-15, 48 h, read-out: Activity
# [30] = system: A549; assay: Growth inhibition of human A549/ATCC cells assessed as cell growth at 10^-8 M incubated for 48 hrs by sulforhodamine B assay relative to control; format: functional; conditions: A549, 48 h, read-out: Activity
# [31] = read-out: LC50 (the source's name)
# [32] = read-out: pLC50 (the source's name) (converted)
smiles,measurement,setting,value
CCS/C(Nc1ccccc1)=C(\C#N)C(=O)Nc1ccc(OC)cc1,growth at 0.1 µM,[1],100%
same,growth at 100 µM,[2],29%
same,growth at 0.01 µM,[3],97%
same,growth at 100 µM,[4],37%
same,GI50,[5]; read-out: GI50,2.24 µM
same,CC50,[5]; [31],> 100 µM
same,TGI,[5]; read-out: TGI,7.86 µM
same,GI50,[5]; read-out: pGI50 (converted),2.24 µM
same,CC50,[5]; [32],> 100 µM
same,TGI,[5]; read-out: pTGI (converted),7.94 µM
same,growth at 1 µM,[6],93%
same,Activity,[7],Active
same,Activity,[8],85.55%
same,Activity,[9],16.44%
same,GI50,[10]; read-out: GI50,5.3 µM
same,CC50,[10]; [31],> 100 µM
same,TGI,[10]; read-out: TGI,> 100 µM
same,GI50,[10]; read-out: pGI50 (converted),5.25 µM
same,CC50,[10]; [32],> 100 µM
same,TGI,[10]; read-out: pTGI,> 100 µM
same,growth at 0.01 µM,[11],97%
same,growth at 10 µM,[12],-8%
same,GI50,[13]; read-out: GI50,2.52 µM
same,CC50,[13]; [31],> 100 µM
same,TGI,[13]; read-out: TGI,> 100 µM
same,GI50,[13]; read-out: pGI50 (converted),2.51 µM
same,CC50,[13]; [32],> 100 µM
same,TGI,[13]; read-out: pTGI,> 100 µM
same,GI50,[14]; read-out: GI50,2.55 µM
same,CC50,[14]; [31],> 100 µM
same,TGI,[14]; read-out: TGI,> 100 µM
same,GI50,[14]; read-out: pGI50 (converted),2.57 µM
same,CC50,[14]; [32],> 100 µM
same,TGI,[14]; read-out: pTGI,> 100 µM
same,pIC50,[15],7.19
same,growth at 100 µM,[16],21%
same,growth at 1 µM,[17],78%
same,growth at 10 µM,[18],37%
same,growth at 10 µM,[19],13%
same,Activity,[20],54.11%
same,growth at 1 µM,[21],93%
same,GI50,[22]; read-out: GI50,15.3 µM
same,CC50,[22]; [31],> 100 µM
same,TGI,[22]; read-out: TGI,> 100 µM
same,GI50,[22]; read-out: pGI50 (converted),15.5 µM
same,CC50,[22]; [32],> 100 µM
same,TGI,[22]; read-out: pTGI,> 100 µM
same,growth at 0.01 µM,[23],105%
same,growth at 0.01 µM,[24],107%
same,growth at 0.01 µM,[25],97%
same,growth at 10 µM,[26],37%
same,growth at 0.01 µM,[27],103%
same,growth at 1 µM,[28],97%
same,growth at 0.1 µM,[29],88%
same,growth at 0.01 µM,[30],95%
CCS/C(Nc1ccccc1)=C(\C#N)C(=O)N/N=C\c1ccc(Cl)cc1Cl,growth at 0.1 µM,[1],87%
same,growth at 100 µM,[2],9%
same,growth at 0.01 µM,[3],97%
same,growth at 100 µM,[4],8%
same,GI50,[5]; read-out: GI50,2.06 µM
same,CC50,[5]; [31],> 100 µM
same,TGI,[5]; read-out: TGI,8.65 µM
same,GI50,[5]; read-out: pGI50 (converted),2.04 µM
same,CC50,[5]; [32],> 100 µM
same,TGI,[5]; read-out: pTGI (converted),8.71 µM
same,growth at 1 µM,[6],89%
same,Activity,[7],Active
same,Activity,[8],91.29%
same,Activity,[9],12.4%
same,GI50,[10]; read-out: GI50,6.46 µM
same,CC50,[10]; [31],> 100 µM
same,TGI,[10]; read-out: TGI,> 100 µM
same,GI50,[10]; read-out: pGI50 (converted),6.46 µM
same,CC50,[10]; [32],> 100 µM
same,TGI,[10]; read-out: pTGI,> 100 µM
same,growth at 0.01 µM,[11],97%
same,growth at 10 µM,[12],-6%
same,GI50,[13]; read-out: GI50,3.68 µM
same,CC50,[13]; [31],> 100 µM
same,TGI,[13]; read-out: TGI,> 100 µM
same,GI50,[13]; read-out: pGI50 (converted),3.72 µM
same,CC50,[13]; [32],> 100 µM
same,TGI,[13]; read-out: pTGI,> 100 µM
same,GI50,[14]; read-out: GI50,4.65 µM
same,CC50,[14]; [31],> 100 µM
same,TGI,[14]; read-out: TGI,> 100 µM
same,GI50,[14]; read-out: pGI50 (converted),4.68 µM
same,CC50,[14]; [32],> 100 µM
same,TGI,[14]; read-out: pTGI,> 100 µM
same,pIC50,[15],7.49
same,growth at 100 µM,[16],36%
same,growth at 1 µM,[17],68%
same,growth at 10 µM,[18],43%
same,growth at 10 µM,[19],12%
same,Activity,[20],46.38%
same,growth at 1 µM,[21],92%
same,GI50,[22]; read-out: GI50,23.6 µM
same,CC50,[22]; [31],> 100 µM
same,TGI,[22]; read-out: TGI,> 100 µM
same,GI50,[22]; read-out: pGI50 (converted),23.4 µM
same,CC50,[22]; [32],> 100 µM
same,TGI,[22]; read-out: pTGI,> 100 µM
same,growth at 0.01 µM,[23],100%
same,growth at 0.01 µM,[24],109%
same,growth at 0.01 µM,[25],102%
same,growth at 10 µM,[26],27%
same,growth at 0.01 µM,[27],99%
same,growth at 1 µM,[28],97%
same,growth at 0.1 µM,[29],87%
same,growth at 0.01 µM,[30],97%
